B1: IL-4: a cytokine necessary for M2 macrophage polarization (protein, UniProt P05112 25-153, looked up)
Interleukin-4: HKCDITLQEIIKTLNSLTEQKTLCTELTVTDIFAASKNTTEKETFCRAATVLRQFYSHHEKDTRCLGATAQQFHRHKQLIRFLKRLDRNLWGLAGLNSCPVKEANQSTLENFLERLKTIMREKYSKCSS

What was measured:
Format in all cases: in vivo, mouse
[1] = tested on: lens-induced myopia model mice; assay: Test Example 3: mast cell stabilizer instillation in lens-induced myopia model; conditions: for progression of myopia: ocular instillation, minus-lens-induced myopia mouse model; for choroidal thinning (change in choroidal thickness) / myopic shift in refraction (change in refractive value) / ocular elongation (change in axial length): once daily ocular instillation, 3 weeks myopia induction, cromolyn 4% solution, pemirolast potassium 0.1% solution, vs PBS group
Procedure: (§1) The axial length, choroidal thickness, and refractivity of the mice in each group were measured. The axial length and the choroidal thickness were measured using spectral domain optical coherence tomography (Envisu R4310, manufactured by Leica). The refractivity was measured using an infrared photorefractor for mice (made by Professor Schaeffel, University of Tubingen).
To verify the inhibitory effect of mast cell stabilizer instillation on myopia progression, a lens-induced myopia model was employed, wherein myopia was induced in mice by fitting the mice with minus lenses. During the myopia induction period, either cromolyn solution (4% solution) or pemirolast potassium (0.1% solution) was administered once daily by means of ocular instillation.
Following the test method described above, the axial length, refractive value, and choroidal thickness were measured in mice that underwent myopia induction for 3 weeks and ocular instillation of cromolyn solution or pemirolast potassium solution, as well as in control mice, and the amounts of changes therein were calculated (FIG. 7A, B, and C).

[2] = tested on: mice with LIM-induced myopia; assay: Test Example 4: mast cell stabilizer vs histamine receptor antagonist instillation in mice with LIM-induced myopia; conditions: for choroidal thinning (change in choroidal thickness) / myopic shift in refraction (change in refractive value) / ocular elongation (change in axial length): eye drops, pemirolast potassium 0.1% solution, levocabastine 0.025% solution, vs control group
Procedure: as §1
Anti-allergic drugs are broadly divided into two types: mast cell stabilizers, which inhibit mast cell degranulation, and histamine receptor inhibitors, which inhibit the action of histamine secreted due to mast cell degranulation. In order to clarify whether the myopia suppression effect of the mast cell stabilizer instillation in Test Example 3 was due to the action of the anti-allergic drug or to the inhibition of mast cell degranulation, pemirolast potassium (0.1% solution) and levocabastine solution (0.025% solution) were administered as eye drops, respectively as a mast cell stabilizer and a histamine receptor inhibitor, to mice with LIM-induced myopia, and the myopia-suppressing effects were compared.

C57BL6J mice = assay: Myopia suppression by IL-13 administration during the myopia induction period (minus lens); conditions: IL-13 during the myopia induction period
Procedure: as §1
Changes in blood flow were measured using swept-source optical coherence tomography (OCT S-1, Canon).

choroidal macrophages = assay: M2 macrophage polarization in the choroid after IL-13 administration, flow cytometry; conditions: IL-13 during the myopia induction period
Procedure: The number of macrophages was measured using a flow cytometer (CytoFLEX S, Beckman Coulter) after digestion of the choroid and staining with F4/80 antibody and CD11b antibody. The number of M2 macrophages was measured in the same manner as for the measurement of the number of macrophages, except for the addition of a staining process with CD206 antibody.

[3] = tested on: C57BL6 mice undergoing myopia induction; assay: Myopia suppression by IL-4 administration in mice undergoing myopia induction (-30 D lens); conditions: IL-4 10 μg/kg BW intraperitoneally for 3 weeks
Procedure: as §1
Additionally, IL-4 was administered to mice undergoing myopia induction to evaluate whether there is a myopia suppression effect (FIG. 4).
C57BL6 mice undergoing myopia induction (−30 D lens, n=4) were intraperitoneally administered 0.1 μg/100 μl (10 μg/kg BW) of IL-4 solution for 3 weeks. C57BL6J mice undergoing myopia induction (0 D lens, −30 D lens, n=4 per group) were used as control groups.

[4] = tested on: M2 macrophage markers CD163 and CD206; assay: M2 macrophage polarization in the choroid after IL-4 administration (Western blot, real-time PCR); conditions: IL-4 10 μg/kg BW intraperitoneally
Procedure: Therefore, IL-4, which is a cytokine necessary for M2 macrophage polarization, was administered to mice, and whether M2 polarization would occur in the choroid was evaluated by means of analyzing the expression levels of M2 macrophage markers CD163 and CD206 (FIG. 3A and B).
C57BL6J mice (n=4 per group) were intraperitoneally administered 0.1 μg/100 μl (10 μg/kg BW) of IL-4 solution. Choroid, retina, and liver samples were taken at 0 hours (before administration) as well as 4, 24, and 48 hours after administration, and the expression of M2 macrophage marker genes was analyzed by Western blot and real-time PCR (FIG. 3). In addition, choroid and retina samples were collected at 0 hours (before administration) as well as 4 and 24 hours after administration, and the expression of oxidative-stress-related genes was analyzed by real-time PCR (FIG. 4).

Row | Molecule | progression of myopia [1] | choroidal thinning (change in choroidal thickness) [1] | myopic shift in refraction (change in refractive value) [1] | ocular elongation (change in axial length) [1] | choroidal thinning (change in choroidal thickness) [2] | myopic shift in refraction (change in refractive value) [2] | ocular elongation (change in axial length) [2] | further results
1 | O=C(O)c1cc(=O)c2c(OCC(O)COc3cccc4oc(C(=O)O)cc(=O)c34)cccc2o1 [cromolyn, cromolyn sodium] | suppression | not observed | not observed | not observed |  |  |  | 
2 | C[C@@H]1CN([C@H]2CC[C@](C#N)(c3ccc(F)cc3)CC2)CC[C@]1(C(=O)O)c1ccccc1 [levocabastine] |  |  |  |  | observed | observed | observed | progression of myopia ([2]; ocular instillation, mice undergoing myopia induction by fitting a minus lens): not suppressed
3 | Cc1cccn2c(=O)c(-c3nnn[nH]3)cnc12 [pemirolast potassium] | suppression | not observed | not observed | not observed | not observed | not observed | not observed | 
4 | IL-13: a cytokine that causes M2 polarization of macrophages |  |  |  |  |  |  |  | choroidal thinning (C57BL6J mice): suppressed; minus-lens-induced ocular elongation (C57BL6J mice): suppressed; myopic shift in refraction (C57BL6J mice): suppressed; M2 macrophage polarization (choroidal macrophages): induced
5 | B1 |  |  |  |  |  |  |  | choroidal thinning [3]: suppresses; ocular elongation [3]: suppresses; refractive loss [3]: suppresses; expression of M2 markers CD163 and CD206 in the choroid ([4]; 0, 4, 24, 48 hours): increased the expression; M2 macrophage polarization ([4]; choroid): confirmed; expression of oxidative-stress-related genes ([4]; choroid and retina, 0, 4, 24 hours, real-time PCR): suppressed expression; expression of M2 macrophage marker genes ([4]; gene expression analysis): increased expression
